From ChEMBL document CHEMBL4680212, “Discovery of T-1101 tosylate as a first-in-class clinical candidate for Hec1/Nek2 inhibition in cancer therapy” (Eur J Med Chem, 2020) come the findings set out here.

The subject of one data set is K562. Nature of the data set: Antiproliferative activity against human K562 cells measured after 96 hrs by CellTiter 96 Aqueous One Solution Reagent based assay. It is filed as functional, cell-based. The following applies: K562, 96 h.
The nature of data set [1]: AUC in CD-1 mouse at 10 mg/kg, po administered as single dose via gavage by LC-MS/MS analysis. In kind it is ADME, organism-based. Details: dose 10 mg/kg. The following applies: in vivo.
Data set [2] can be described thus: Drug level in tumor of human Huh-7 cells xenografted SCID mouse at 10 mg/kg, iv measured after 12 hrs by LC-MS/MS analysis. It is filed as ADME, organism-based, Neoplasm. The following applies: read-out: Drug uptake.
A further data set concerns Huh-7. Nature of the data set: Antiproliferative activity against human Huh-7 cells by CellTiter 96 Aqueous One Solution Reagent based assay. Details: dose or concentration left out as unconfirmed. In kind it is functional.
A further data set has as its system MDA-MB-468. Nature of the data set: Antiproliferative activity against human MDA-MB-468 cells measured after 96 hrs by CellTiter 96 Aqueous One Solution Reagent based assay. In kind it is functional, cell-based. The settings on record: MDA-MB-468, 96 h.
Data set [3] in a line: Ratio of drug level in tumor to plasma of human Huh-7 cells xenografted SCID mouse at 10 mg/kg, iv measured after 8 hrs by LC-MS/MS analysis. In kind it is ADME, organism-based. The settings on record: tumour.
Data set [4] can be described thus: Toxicity in Sprague-Dawley rat assessed as effect on locomotor activity up to 60 mg/kg, po administered as single dose. The settings on record: in vivo. In kind it is organism-based.
The nature of data set [5]: Drug level in tumor of human Huh-7 cells xenografted SCID mouse at 10 mg/kg, iv measured after 1 hr by LC-MS/MS analysis. The following applies: read-out: Drug uptake. In kind it is ADME, organism-based, Neoplasm. In general terms: Xenograft models place foreign cells or tissue in a host animal.
Data set [6] is described as follows: Ratio of drug level in tumor to plasma of human Huh-7 cells xenografted SCID mouse at 10 mg/kg, iv measured after 4 hrs by LC-MS/MS analysis. It is filed as ADME, organism-based. The settings on record: tumour.
Data set [7] in a line: Ratio of drug level in tumor to plasma of human Huh-7 cells xenografted SCID mouse at 10 mg/kg, iv measured after 24 hrs by LC-MS/MS analysis. The following applies: tumour. It is filed as ADME, organism-based.
Data set [8] can be described thus: Cmax in CD-1 mouse at 10 mg/kg, po administered as single dose via gavage by LC-MS/MS analysis. It is filed as ADME, organism-based. On the set-up: route oral, dose 10 mg/kg. The settings on record: in vivo.
Data set [9] can be described thus: Ratio of drug level in tumor to plasma of human Huh-7 cells xenografted SCID mouse at 10 mg/kg, iv measured after 0.5 hrs by LC-MS/MS analysis. It is filed as ADME, organism-based. The following applies: tumour.

For `COCCOc1cnc(Sc2cc(C)c(-c3csc(NC(=O)c4ccncc4)n3)c(C)c2)cn1`, the IC50 (in general, the concentration that gives 50% inhibition) in the data set with K562 was found to be 18 nM; in the data set with MDA-MB-468 it was 21.5 nM. In addition, in data set [1], the AUC (commonly the area under the concentration-time curve, a measure of exposure) was found to be 43.5 µM·h. In data set [2], the concentration at 12 h worked out at 507 nM. Further, the GI50 (commonly the concentration that inhibits growth by half) in the data set with Huh-7 was 35 nM. The Ratio stood at 35% in data set [3], 33.2% in data set [6], 41.1% in [7] and 20.7% in data set [9]. Besides, in data set [4], the Activity result is on record as “Non-Toxic”. Besides, the concentration at 1 h in data set [5] was determined as 2660 nM. Further, the highest level in [8] (Cmax) was 6.3 µM.
